Assay results from ChEMBL document CHEMBL2146405, “Isomalyngamide A, A-1 and their analogs suppress cancer cell migration in vitro” (Eur J Med Chem, 2011).
The source made the active and inactive calls. No cut-off for these calls is given here.

Legend:
[1] = target: Integrin beta-1 (Homo sapiens) (UniProt P05556); experiment: Inhibition of beta1-integrin in human MDA-MB-231 cells assessed as FAK protein level after 2 hrs by Western blot analysis; format: cell-based
[2] = target: Integrin beta-1 (Homo sapiens) (UniProt P05556); experiment: Inhibition of beta1-integrin in human MDA-MB-231 cells assessed as Akt phosphorylation at Ser473 after 2 hrs by Western blot analysis; format: cell-based
[3] = target: Integrin beta-1 (Homo sapiens) (UniProt P05556); experiment: Inhibition of beta1-integrin in human MDA-MB-231 cells after 2 hrs by Western blot analysis; format: cell-based
[4] = target: Integrin beta-1 (Homo sapiens) (UniProt P05556); experiment: Inhibition of beta1-integrin in human MDA-MB-231 cells assessed as Akt protein level after 2 hrs by Western blot analysis; format: cell-based
[5] = target: Integrin beta-1 (Homo sapiens) (UniProt P05556); experiment: Inhibition of beta1-integrin in human MDA-MB-231 cells assessed as FAK phosphorylation at Tyr576/Tyr577 after 2 hrs by Western blot analysis; format: cell-based
MDA-MB-231 [6] = experiment: Antiproliferative activity against human MDA-MB-231 cells at 20 uM after 48 hrs by MTT assay; format: functional; conditions: MDA-MB-231, 48 h
MDA-MB-231 [7] = experiment: cells; conditions: Homo sapiens, MDA-MB-231, 16 h
Description: Antimetastatic activity in human MDA-MB-231 cells assessed as inhibition of serum-induced cellular migration after 16 hrs by Boyden chamber assay

[8] = Inhibition of rat liver alpha 2,3-sialyltransferase
MDA-MB-231 [9] = experiment: Antiproliferative activity against human MDA-MB-231 cells assessed as reduction in cell viability at 50 uM after 48 hrs by MTT assay; format: functional, cell-based
MCF7 [10] = experiment: Antiproliferative activity against human MCF7 cells at 20 uM after 48 hrs by MTT assay; format: functional; conditions: MCF7, 48 h
[11] = Solubility of compound at 10 uM; format: physicochemical
MDA-MB-231 [12] = experiment: Antiproliferative activity against human MDA-MB-231 cells after 48 hrs by MTT assay; format: functional, cell-based; conditions: MDA-MB-231, 48 h
MDA-MB-231 [13] = experiment: Antimetastatic activity in human MDA-MB-231 cells assessed as inhibition of cell migration-associated wound closure at 150 nM after 24 hrs of scratching by wound-healing assay; format: functional, cell-based
MDA-MB-231 [14] = experiment: Antimetastatic activity in human MDA-MB-231 cells assessed as inhibition of serum-induced cellular migration at 150 nM after 24 hrs by wound healing assay; format: functional, cell-based
MCF7 [15] = experiment: Antiproliferative activity against human MCF7 cells after 48 hrs by MTT assay; format: functional, cell-based; conditions: MCF7, 48 h
Rattus norvegicus = species on record: Rattus norvegicus; experiment: Inhibition of rat liver alpha 2,3-sialyltransferase at 100 uM

Chain of Integrin beta-1 (Homo sapiens) (P05556 whole entry): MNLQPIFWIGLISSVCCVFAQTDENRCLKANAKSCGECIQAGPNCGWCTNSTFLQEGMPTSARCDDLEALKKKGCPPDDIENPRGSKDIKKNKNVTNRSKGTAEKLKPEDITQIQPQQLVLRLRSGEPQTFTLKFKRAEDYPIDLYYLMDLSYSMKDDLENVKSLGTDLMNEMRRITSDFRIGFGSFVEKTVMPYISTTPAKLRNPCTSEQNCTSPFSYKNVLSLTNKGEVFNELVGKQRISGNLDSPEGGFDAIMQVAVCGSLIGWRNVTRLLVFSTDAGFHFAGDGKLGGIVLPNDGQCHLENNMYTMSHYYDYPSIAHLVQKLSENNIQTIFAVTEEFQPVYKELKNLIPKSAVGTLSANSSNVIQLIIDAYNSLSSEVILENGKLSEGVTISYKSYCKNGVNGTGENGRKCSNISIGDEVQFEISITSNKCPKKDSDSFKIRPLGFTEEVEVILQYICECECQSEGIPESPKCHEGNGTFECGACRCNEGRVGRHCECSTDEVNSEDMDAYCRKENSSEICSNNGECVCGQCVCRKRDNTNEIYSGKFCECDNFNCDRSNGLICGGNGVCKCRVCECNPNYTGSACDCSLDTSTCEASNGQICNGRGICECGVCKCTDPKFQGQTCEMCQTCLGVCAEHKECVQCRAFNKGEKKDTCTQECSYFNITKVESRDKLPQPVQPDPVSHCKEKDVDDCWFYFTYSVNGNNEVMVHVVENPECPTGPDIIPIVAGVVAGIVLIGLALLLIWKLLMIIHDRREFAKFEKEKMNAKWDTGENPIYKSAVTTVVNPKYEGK

CCCCCCCCCCCCCC(=O)NCCNC(=O)C(C)(C)C(=O)N1CC(=O)CC1=O
inhibition [1]: Dose-dependent effect
inhibition [2]: Active
inhibition [3]: Dose-dependent effect
inhibition [4]: Dose-dependent effect
inhibition [5]: Dose-dependent effect

CCCCCCCCCCCCCC(=O)NCCNC(=O)C(C)(C)C(=O)NCC(=O)O
inhibition at 20 µM (MDA-MB-231 [6]): 0%
IC50 (MDA-MB-231 [7]): 22.7 µM
IC50 [8]: 37 µM
Activity (MDA-MB-231 [9]): inactive
inhibition at 20 µM (MCF7 [10]): 7%

CCCCCCCCCCCCCC(=O)N1CC(OC)=CC1=O
solubility [11]: Insoluble

CCCCCCC[C@@H](C/C=C/CCC(=O)N(C)C/C(=C\Cl)C/C(=C\C(=O)N1CC(OC)=CC1=O)OC)OC [ISOMALYNGAMIDE A]
IC50 (MDA-MB-231 [12]): 2.8 µM
Activity (MDA-MB-231 [13]): Active
IC50 (MDA-MB-231 [7]): 0.06 µM
Activity (MDA-MB-231 [14]): Active
IC50 (MCF7 [15]): 4.6 µM
IC50 [8]: 77.2 µM

COC1=CC(=O)NC1
inhibition at 20 µM (MDA-MB-231 [6]): 3%
inhibition (Rattus norvegicus): inactive
inhibition at 20 µM (MCF7 [10]): 2%
